We go through two molecules from patent publication US20050239656A1, “Pyridine compounds or salts thereof and herbicides containing the same” (priority 2002, published 2005).

In test [1] the test system is soybean. Description: Test Example 1: foliage treatment, upland pot test. Particulars: crop, active ingredient 1000 g/ha, observed 18th to 23rd day, 0 = non-treated, 100 = complete kill. The format is in vivo, Glycine max Merr. The essentials: (§1)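 Applied as a post-emergence foliar spray: formulated compound diluted to 500 L/ha with spreader at 0.1% (v/v). Treatment timing—rice at 1.2–2.6, wheat at 1.3–2.4, barnyardgrass at 1.3–2.8, soybean at 0.1–0.4 leaf stage. Scored visually on a 0–100% control scale after 18–23 days.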

In test [2] the test system is corn. Nature of the test: Test Example 2: soil surface treatment, upland pot test. Particulars: active ingredient 500 g/ha, observed 20th to 28th day. The format is in vivo, Zea mays L. The method in brief:
(§2)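 Visual growth-control ratings, from 0 (like the non-treated plot) to 100 (total kill), were made between days 20 and 28 after a soil-surface spray. The compound, formulated as wettable powder or emulsifiable concentrate and diluted at 1,500 L/ha, went on one day post-sowing in upland-soil pots of 1/170,000 ha.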

For test [3], the system named is corn. Nature of the test: Test Example 1: foliage treatment, upland pot test. Particulars: crop, active ingredient 1000 g/ha, observed 18th to 23rd day, 0 = non-treated, 100 = complete kill. The format is in vivo, Zea mays L. The essentials:
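In this upland pot foliage test, corn plants at 2.1 to 3.2 leaf stages were sprayed by a small size sprayer. The spray was a conventionally formulated wettable powder or emulsifiable concentrate weighed to a set active ingredient amount, diluted in water at 500 L/ha, plus 0.1% (v/v) agricultural spreader. Visual assessment on days 18 to 23 gave growth controlling degree (%), where 0 equals untreated and 100 means complete kill.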

Test [4] relates to velvetleaf. Description: Test Example 1: foliage treatment, upland pot test. The format is in vivo, Abutilon theophrasti MEDIC. Particulars: active ingredient 1000 g/ha, observed 18th to 23rd day, 0 = non-treated, 100 = complete kill.
For test [5], the system named is rice. Description: Test Example 2: soil surface treatment, upland pot test. The format is in vivo, Oryza sativa L. Particulars: active ingredient 500 g/ha, observed 20th to 28th day. The method in brief: as §2
The test system of test [6] is crabgrass. The test is described as above. The class given is in vivo, Digitaria sanguinalis L. Particulars: active ingredient 500 g/ha, observed 20th to 28th day. The method in brief:
as §2

The test system of another test is rice (var. Nihonbare). Nature of the test: Test Example 3: paddy pot test, transplanted rice. The format is in vivo, Oryza sativa L. Particulars: active ingredient 500 g/ha, applied 4th day after transplantation, visually observed 21st day after application, 0 = non-treated, 100 = complete kill. The essentials: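 Rice (2-leaf stage) was transplanted 3 cm deep into puddled, leveled paddy soil under 3–4 cm flooding. On day 4 after transplanting, diluted wettable powder or emulsifiable concentrate was pipetted onto the water at a predetermined active-ingredient dose. Growth control (0 = untreated, 100 = complete kill) was scored visually 21 days later.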

The subject of test [7] is rice. Nature of the test: Test Example 1: foliage treatment, upland pot test. Particulars: crop, active ingredient 1000 g/ha, observed 18th to 23rd day, 0 = non-treated, 100 = complete kill. The class given is in vivo, Oryza sativa L. The essentials: as §1
Test [8] has as its system barnyardgrass. Description: Test Example 1: foliage treatment, upland pot test. Particulars: active ingredient 1000 g/ha, observed 18th to 23rd day, 0 = non-treated, 100 = complete kill. The format is in vivo, Echinochloa crus-galli L. The essentials:
as §1

Test [9] deals with prickly sida. Description: Test Example 1: foliage treatment, upland pot test. Particulars: active ingredient 1000 g/ha, observed 18th to 23rd day, 0 = non-treated, 100 = complete kill. The format is in vivo, Sida spinosa L.
The subject of test [10] is soybean. Nature of the test: Test Example 2: soil surface treatment, upland pot test. The format is in vivo, Glycine max Merr. Particulars: active ingredient 500 g/ha, observed 20th to 28th day. The essentials:
as §2

Test [11] deals with prickly sida. Described as above. The class given is in vivo, Sida spinosa L. Particulars: active ingredient 500 g/ha, observed 20th to 28th day. The method in brief:
as §2

Test [12] concerns green foxtail. Described as above. The class given is in vivo, Setaria viridis L. Particulars: active ingredient 500 g/ha, observed 20th to 28th day. The method in brief: as §2
The subject of test [13] is redroot pigweed. The description is as above. The class given is in vivo, Amaranthus retroflexus L. Particulars: active ingredient 500 g/ha, observed 20th to 28th day. The essentials: as §2
Test [14] deals with velvetleaf. Described as above. The format is in vivo, Abutilon theophrasti MEDIC. Particulars: active ingredient 500 g/ha, observed 20th to 28th day. The essentials: as §2
For test [15], the system named is crabgrass. Nature of the test: Test Example 1: foliage treatment, upland pot test. The format is in vivo, Digitaria sanguinalis L. Particulars: active ingredient 1000 g/ha, observed 18th to 23rd day, 0 = non-treated, 100 = complete kill. The source says: Upland field soil was put into a 1/170,000 ha pot, and seed of various plants were sown. Then, when the plants reached predetermined leaf stages ((1) barnyardgrass: 1.3 to 2.8 leaf stages, (2) crabgrass: 1.0 to 2.8 leaf stages, (3) green foxtail: 1.3 to 2.6 leaf stages, (4) redroot pigweed: 0.1 to 1.2 leaf stages, (5) prickly sida: 0.1 to 1.2 leaf stages, (6) velvetleaf: 0.1 to 1.2 leaf stages, (7) tall morningglory: 0.1 to 1.5 leaf stages, (8) rice: 1.2 to 2.6 leaf stages, (9) wheat: 1.3 to 2.4 leaf stages, (10) corn, 2.1 to 3.2 leaf stages, (11) soybean: 0.1 to 0.4 leaf stage), a wettable powder or emulsifiable concentrate having the compound of the present invention formulated in accordance with a usual formulation method, was weighed so that the active ingredient would be a predetermined amount, and diluted with water in an amount of 500 L/ha. To the diluted solution, 0.1% (v/v) of agricultural spreader was added. The herbicide thus adjusted was applied by a small size sprayer for foliage treatment. On the 18th to 23rd days after the application of the herbicide, the growth of the respective plants was visually observed, and the herbicidal effects were evaluated by the growth controlling degrees (%) ranging from 0 (equivalent to the non-treated plot) to 100 (complete kill), whereby the results shown in Table 3, were obtained.

In test [16] the test system is barnyardgrass. Nature of the test: Test Example 2: soil surface treatment, upland pot test. Particulars: active ingredient 500 g/ha, observed 20th to 28th day. The class given is in vivo, Echinochloa crus-galli L. The essentials:
as §2

The test system of another test is japanese bulrush. Nature of the test: Test Example 3: paddy pot test, application under submerged conditions. The class given is in vivo, Scirpus juncoides. Particulars: active ingredient 500 g/ha; submerged application at 0.5 leaf stage; visually observed 14 days after application; 0 = non-treated, 100 = complete kill. The essentials: (§3)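 After sowing seeds and planting wapato tubers in flooded paddy soil, an aqueous dilution of the formulated compound was added to the 3–4 cm flood water at early leaf stage. Percent growth control relative to the untreated plot was assessed visually on day 14.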

The test system of test [17] is green foxtail. Description: Test Example 1: foliage treatment, upland pot test. The format is in vivo, Setaria viridis L. Particulars: active ingredient 1000 g/ha, observed 18th to 23rd day, 0 = non-treated, 100 = complete kill.
In the next test the test system is japanese ribbon wapato. Description: Test Example 3: paddy pot test, application under submerged conditions. The format is in vivo, Sagittaria pygniaea. Particulars: active ingredient 500 g/ha; submerged application at primary leaf stage; visually observed 14 days after application; 0 = non-treated, 100 = complete kill. The method in brief:
as §3

Test [18] deals with redroot pigweed. Nature of the test: Test Example 1: foliage treatment, upland pot test. The class given is in vivo, Amaranthus retroflexus L. Particulars: active ingredient 1000 g/ha, observed 18th to 23rd day, 0 = non-treated, 100 = complete kill.

For the molecule `CC(C)C(c1cnccc1C(F)(F)F)N(C)C(=O)Cc1ccc(F)cc1F` (stereo not drawn) [I-18], in the test on soybean [1], the “Growth controlling degree (%) Soybean” value worked out at 70%. The “Growth controlling degree (%) Corn” value in the test on corn [2] is 50%; with corn [3], 80%. Moreover, the “Growth controlling degree (%) Velvetleaf” value was 90% with velvetleaf [4] and 80% in the test with velvetleaf [14]. Besides, the “Growth controlling degree (%) Rice” value in the test on rice [5] is 20%; in the test with rice (var. Nihonbare) it was 10%; with rice [7], 50%. Further, the “Growth controlling degree (%) Crabgrass” value in the test with crabgrass [6] came to 100%; in the test on crabgrass [15], 90%. In addition, the results for the “Growth controlling degree (%) Barnyardgrass” value in the test with barnyardgrass [8] and in the test with barnyardgrass [16] were 90% and 100%, respectively. Besides, the “Growth controlling degree (%) Prickly sida” value in the test on prickly sida [9] was determined as 90%; with prickly sida [11] it was 80%. Also, in the test on soybean [10], the “Growth controlling degree (%) Soyabean” value was found to be 50%. In addition, the “Growth controlling degree (%) Green foxtail” value was 100% in the test on green foxtail [12] and 70% in the test on green foxtail [17]. The “Growth controlling degree (%) Redroot pigweed” value in the test with redroot pigweed [13] stood at 80%; in the test on redroot pigweed [18], 90%. For the same molecule, the “Growth controlling degree (%) Japanese bulrush” value with japanese bulrush is recorded as 90%. The “Growth controlling degree (%) Japanese ribbon wapato” value in the test with japanese ribbon wapato came to 90%.
For `CC(C)C(c1cnccc1C(F)(F)F)N(C)C(=O)Cc1cccc(F)c1F` (stereo not drawn) [I-19], the “Growth controlling degree (%) Soybean” value with soybean [1] was determined as 90%. For the same molecule, the “Growth controlling degree (%) Corn” value is 30% with corn [2] and 50% in the test on corn [3]. The “Growth controlling degree (%) Velvetleaf” value in the test on velvetleaf [4] and in the test with velvetleaf [14] was 80% each time. For the same molecule, the “Growth controlling degree (%) Rice” value was 10% in the test on rice [5], 35% in the test with rice (var. Nihonbare) and 20% in the test on rice [7]. In addition, the “Growth controlling degree (%) Crabgrass” value in the test on crabgrass [6] is given as 100%; with crabgrass [15], 90%. The “Growth controlling degree (%) Barnyardgrass” value in the test on barnyardgrass [8] turned out to be 80%; with barnyardgrass [16] it was 95%. The “Growth controlling degree (%) Prickly sida” value in the test on prickly sida [9] was 80%; with prickly sida [11] it was 98%. Moreover, the “Growth controlling degree (%) Soyabean” value in the test on soybean [10] was determined as 30%. Also, the “Growth controlling degree (%) Green foxtail” value with green foxtail [12] is 100%; with green foxtail [17], 70%. Besides, the “Growth controlling degree (%) Redroot pigweed” value with redroot pigweed [13] and with redroot pigweed [18] was 80% throughout. Further, the “Growth controlling degree (%) Japanese bulrush” value with japanese bulrush is recorded as 95%. Also, in the test with japanese ribbon wapato, the “Growth controlling degree (%) Japanese ribbon wapato” value turned out to be 95%.
